ChEMBL document CHEMBL1201862, “PubChem BioAssay data set” (2004)
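Dose response: 5 concentrations. Exposure: 48 h. Format: 96-well plates. Endpoint: linear interpolation; highest concentration if not reached. The concentration for 50% growth inhibition is given as GI50.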 Active and inactive are the calls of the source. Rule as the data show it: active = GI50 up to about 1.1 µM and inactive = higher.

How the values were obtained:
Test in all cases: NCI anticancer screen, dose series, 48 h
[1] = system: 786-0
[2] = system: ACHN
[3] = system: COLO 205
[4] = system: DU-145
[5] = system: HCT-15
[6] = system: HOP-92
[7] = system: HT-29
[8] = system: K562
[9] = system: MDA-N
[10] = system: Malme-3M
[11] = system: NCI-H226
[12] = system: NCI-H460
[13] = system: OVCAR-5
[14] = system: SK-OV-3
[15] = system: SN12C
[16] = system: SNB-75
[17] = system: T47D
[18] = system: TK-10
[19] = system: U-251
[20] = system: UO-31

Row | SMILES | GI50 [1] | GI50 [2] | GI50 [3] | GI50 [4] | GI50 [5] | GI50 [6] | GI50 [7] | GI50 [8] | GI50 [9] | GI50 [10] | GI50 [11] | GI50 [12] | GI50 [13] | GI50 [14] | GI50 [15] | GI50 [16] | GI50 [17] | GI50 [18] | GI50 [19] | GI50 [20]
1 | O=C1CS(=O)(=O)C(c2cccc(Oc3ccccc3)c2)N1C1CC1 (stereo not given) | 37.2 µM (inactive) | 31.2 µM (inactive) | 25.2 µM (inactive) | 63.2 µM (inactive) | 30.3 µM | 23.4 µM (inactive) | 32.7 µM (inactive) | 50.9 µM (inactive) | 26.7 µM (inactive) | > 100 µM (inactive) | 26.9 µM (inactive) | 43.4 µM (inactive) | 62.2 µM (inactive) | 33.3 µM (inactive) | 46.8 µM (inactive) | 24.8 µM (inactive) | 35 µM (inactive) | 44.7 µM (inactive) | 32.5 µM (inactive) | 27.6 µM (inactive)
2 | Cc1nc2c(=O)[nH]c(=O)nc-2n(CCO)c1C | > 100 µM (inactive) | > 100 µM (inactive) | > 100 µM (inactive) | > 100 µM (inactive) | > 100 µM | > 100 µM (inactive) | > 100 µM (inactive) | > 100 µM (inactive) | > 100 µM (inactive) | > 100 µM (inactive) | > 100 µM (inactive) | > 100 µM (inactive) | > 100 µM (inactive) | > 100 µM (inactive) | > 100 µM (inactive) | 82 µM (inactive) | > 100 µM (inactive) | > 100 µM (inactive) | > 100 µM (inactive) | > 100 µM (inactive)
3 | C=C1c2nc3ccccc3n2C=C(c2ccc(Cl)cc2)N1c1ccc(OCCN2CCOCC2)cc1 | 25.2 µM (inactive) | 34.9 µM (inactive) | 18.9 µM (inactive) | 49.8 µM (inactive) | 12.7 µM | 50.8 µM (inactive) | 12.2 µM (inactive) | 9.82 µM (inactive) | 42.2 µM (inactive) | 52 µM (inactive) | > 100 µM (inactive) | 5.47 µM (inactive) | > 100 µM (inactive) | > 100 µM (inactive) | > 100 µM (inactive) | > 100 µM (inactive) | 21.4 µM (inactive) | 35.9 µM (inactive) | 30.5 µM (inactive) | 33.4 µM (inactive)
4 | CC/C(Cl)=N\OC(=O)Nc1ccc(F)c(Cl)c1 | 7.1 µM (inactive) | 13.8 µM (inactive) | 2.82 µM (inactive) | 19.7 µM (inactive) | 15.2 µM | 4.38 µM (inactive) | 24 µM (inactive) | 1.84 µM (inactive) | 18.2 µM (inactive) | 4.66 µM (inactive) | 24.4 µM (inactive) | 17.7 µM (inactive) | 16.5 µM (inactive) | 18.5 µM (inactive) | 18 µM (inactive) | 12.2 µM (inactive) | 7.89 µM (inactive) | 17.5 µM (inactive) | 17.2 µM (inactive) | 18.3 µM (inactive)
5 | Cc1nc2ccccc2n1CCc1nc2ccccc2s1 | 42.7 µM (inactive) | 20 µM (inactive) | 26.9 µM (inactive) | 70.5 µM (inactive) | 87.7 µM | 32.9 µM (inactive) | 21.1 µM (inactive) | 11 µM (inactive) | 48.9 µM (inactive) | 17.3 µM (inactive) | 0.857 µM (active) | 31.2 µM (inactive) | > 100 µM (inactive) | > 100 µM (inactive) | > 100 µM (inactive) | 78 µM (inactive) | 7.21 µM (inactive) | 45.4 µM (inactive) | 75 µM (inactive) | 1.93 µM (inactive)
6 | CSCCC(NCc1c(O)ccc2c(-c3ccccc3)cc(=O)oc12)C(=O)O (stereo not given) | > 100 µM (inactive) | > 100 µM (inactive) | > 100 µM (inactive) | > 100 µM (inactive) | > 100 µM | > 100 µM (inactive) | > 100 µM (inactive) | > 100 µM (inactive) | > 100 µM (inactive) | > 100 µM (inactive) | > 100 µM (inactive) | > 100 µM (inactive) | > 100 µM (inactive) | > 100 µM (inactive) | > 100 µM (inactive) | > 100 µM (inactive) | > 100 µM (inactive) | > 100 µM (inactive) | > 100 µM (inactive) | > 100 µM (inactive)
7 | C#C[C@]1(O)[C@@H](CO)O[C@@H](n2ccc(N)nc2=O)[C@@H]1O | < 0.0325 µM (active) | < 0.01 µM (active) | < 0.0111 µM (active) | < 0.01 µM (active) | < 0.01 µM | 0.11 µM (active) | < 0.0149 µM (active) | < 0.01 µM (active) | 0.0121 µM (active) | 0.0337 µM (active) | 0.0308 µM (active) | < 0.01 µM (active) | 0.209 µM (active) | 0.0791 µM (active) | < 0.01 µM (active) | 0.0327 µM (active) | < 0.015 µM (active) | 0.0224 µM (active) | 0.0263 µM (active) | 0.0119 µM (active)
8 | CN1C(=O)C2(c3ccccc31)C1CC3C(CO1)C1C2C3(CO)CN1C#N (stereo not given) | > 100 µM (inactive) | > 100 µM (inactive) | > 100 µM (inactive) | > 100 µM (inactive) | > 100 µM | > 100 µM (inactive) | > 100 µM (inactive) | > 100 µM (inactive) | > 100 µM (inactive) | > 100 µM (inactive) | > 100 µM (inactive) | > 100 µM (inactive) | > 100 µM (inactive) | > 100 µM (inactive) | > 100 µM (inactive) | > 100 µM (inactive) | > 100 µM (inactive) | > 100 µM (inactive) | > 100 µM (inactive) | > 100 µM (inactive)
9 | Clc1ccc(CCNC2(c3cc4ccccc4s3)CCCCC2)cc1Cl | 18.1 µM (inactive) | 26.2 µM (inactive) | 17.8 µM (inactive) | 32.9 µM (inactive) | 15.3 µM | 3.84 µM (inactive) | 10 µM (inactive) | 15.5 µM (inactive) | 32.3 µM (inactive) | 19.5 µM (inactive) | 17.3 µM (inactive) | 14.8 µM (inactive) | 19.5 µM (inactive) | 29.6 µM (inactive) | 33.7 µM (inactive) | 14.2 µM (inactive) | 20.2 µM (inactive) | 20.8 µM (inactive) | 23.9 µM (inactive) | 16.6 µM (inactive)
10 | CCOP(=O)(OCC)C(=C1C=C(C(C)(C)C)C(=O)C(C(C)(C)C)=C1)P(=O)(OCC)OCC | > 4.09 µM (inactive) | 1.94 µM (inactive) | 1.98 µM (inactive) | > 10 µM (inactive) | 3.1 µM | 2.39 µM (inactive) | > 10 µM (inactive) | > 4.8 µM (inactive) | > 5.68 µM (inactive) | 1.82 µM (inactive) | > 10 µM (inactive) | > 10 µM (inactive) | > 10 µM (inactive) | > 10 µM (inactive) | > 10 µM (inactive) | > 10 µM (inactive) | 2.13 µM (inactive) | 3.27 µM (inactive) | > 10 µM (inactive) | > 10 µM (inactive)
11 | O=C1C(Cl)=C(Oc2ccc([N+](=O)[O-])cc2)C(=O)c2c(O)ccc(O)c21 | 67.9 µM (inactive) | 54.2 µM (inactive) | 19.9 µM (inactive) | > 100 µM (inactive) | 25.6 µM | 28.3 µM (inactive) | 33.9 µM (inactive) | 13.3 µM (inactive) | 21 µM (inactive) | 18.1 µM (inactive) | > 100 µM (inactive) | > 100 µM (inactive) | > 100 µM (inactive) | > 100 µM (inactive) | 98.4 µM (inactive) | > 100 µM (inactive) | 29.9 µM (inactive) | 44.1 µM (inactive) | > 100 µM (inactive) | > 100 µM (inactive)
